Measurements published in patent US12257237B2 (priority 2017, dated 2025).
“And” between values parts separate entries of the source, which are not always exact repeats. Equal values may be shown once.

Test: Drug tolerability (body weight) in DD013 dedifferentiated liposarcoma xenograft model
Assay type: in vivo, Athymic nude mice
Set-up: key to Animal status: †: sacrificed moribund
Conditions: for Mouse body weight: individual mice
Experimental: Experiments were performed with female Athymic nude mice, 9-10 weeks old obtained from Harlan Laboratories (Udine, Italy). They were maintained under Specific Pathogen Free conditions with constant temperature and humidity, according to the institutional guidelines.
Tumour growth mice was monitored two/three times a week (depending on tumour growth rate, to avoid unnecessary stress to the animals) by Vernier caliper. Mice were sacrificed when tumour reached a mean weight of 2±0.5 gr. The antitumour activity will be expressed as T/C %, where T and C were the mean tumour weight of treated and control groups, respectively. Mice were monitored daily and weighted at least two times a week. Tolerability was evaluated on the basis of body weight loss (BWL) and clinical observation.

[1] = EDO80 (80 mg/kg), day 23 from inoculum
[2] = EDO80 (80 mg/kg), day 26 from inoculum
[3] = EDO80 (80 mg/kg), day 29 from inoculum
[4] = EDO80 (80 mg/kg), day 33 from inoculum
[5] = EDO80 (80 mg/kg), day 36 from inoculum
[6] = EDO80 (80 mg/kg), day 40 from inoculum
[7] = EDO80 (80 mg/kg), day 43 from inoculum
[8] = EDO80 (80 mg/kg), day 47 from inoculum
[9] = EDO80 (80 mg/kg), day 50 from inoculum
[10] = EDO80 (80 mg/kg), day 54 from inoculum
[11] = EDO80 (80 mg/kg), day 58 from inoculum
[12] = EDO80 (80 mg/kg), day 62 from inoculum
[13] = EDO80 (80 mg/kg), day 65 from inoculum
[14] = EDO80 (80 mg/kg), day 69 from inoculum
[15] = EDO80 (80 mg/kg), day 72 from inoculum
[16] = EDO80 (80 mg/kg), day 75 from inoculum
[17] = EDO80 (80 mg/kg), day 79 from inoculum
[18] = EDO80 (80 mg/kg), day 83 from inoculum
[19] = EDO80 (80 mg/kg), day 87 from inoculum
[20] = EDO80 (80 mg/kg), day 90 from inoculum
[21] = EDO80 (80 mg/kg), day 94 from inoculum
[22] = EDO80 (80 mg/kg), day 98 from inoculum
[23] = EDO80 (80 mg/kg), day 100 from inoculum
[24] = EDO80 (80 mg/kg), day 103 from inoculum

## Cn1c(CCCCCCC(=O)NO)nc2cc(N(CCCl)CCCl)ccc21 [EDO-S101, 7-(5-(bis(2-chloroethyl)amino)-1-methyl-1H-benzo[d]imidazol-2-yl)-N-hydroxyheptanamide]
EDO60 (60 mg/kg), day 114 from inoculum
  Mouse body weight, Mean: 25.3 g
EDO60 (60 mg/kg), day 118 from inoculum
  Mouse body weight, Mean: 25.5 g
[1]
  BWL %: 0.0%
  Mouse body weight, Mean: 24.2 g
  Mouse body weight: 26.1 g and 25.7 g and 25 g and 23.1 g and 24 g and 26.2 g and 22.4 g and 22.3 g
[2]
  BWL %: −3.4%
  Mouse body weight, Mean: 21.9 g
  Mouse body weight: 23.4 g and 23.6 g and 22 g and 21.3 g and 20.9 g and 20.1 g and 22.4 g and 21.6 g and 21.9 g
[3]
  BWL %: 4.2%
  Mouse body weight, Mean: 21.7 g
  Mouse body weight: 22.7 g and 22.6 g and 21.5 g and 22.2 g and 21 g (3×) and 21.6 g (2×)
[4]
  BWL %: 1.3%
  Mouse body weight, Mean: 23.7 g
  Mouse body weight: 25.1 g (2×) and 24 g and 23.1 g and 21.9 g and 22.5 g
[5]
  BWL %: 5.9%
  Mouse body weight, Mean: 25.5 g
  Mouse body weight: 27 g and 25.3 g and 24.7 g and 23.8 g and 26.3 g and 24.2 g and 24.6 g
[6]
  BWL %: 2.5%
  Mouse body weight: 28.6 g and 27 g and 25.7 g and 24.4 g (2×) and 27.9 g and 24 g
[7]
  BWL %: 8.0%
  Mouse body weight, Mean: 25.8 g
  Mouse body weight: 28.5 g and 26.5 g and 25 g (2×) and 26.9 g and 24.2 g and 24.4 g
[8]
  BWL %: 5.9%
  Mouse body weight, Mean: 25.9 g
  Mouse body weight: 27.9 g and 26.1 g and 24.6 g (2×) and 24.2 g and 27.4 g and 24.4 g
[9]
  BWL %: 7.6%
  Mouse body weight, Mean: 25.8 g
  Mouse body weight: 27.9 g and 26.8 g and 24.6 g and 24.4 g and 26.3 g and 23.2 g and 25.3 g
[10]
  BWL %: 8.0%
  Mouse body weight, Mean: 26.2 g
  Mouse body weight: 27.7 g and 26.7 g and 25.8 g and 25 g (2×) and 28 g and 24.8 g
[11]
  BWL %: 12.2%
  Mouse body weight, Mean: 27.0 g
  Mouse body weight: 28.7 g and 29.8 g and 28 g and 27.4 g and 26.9 g and 25 g (2×)
[12]
  BWL %: 8.4%
  Mouse body weight, Mean: 23.5 g
  Mouse body weight: 25.7 g and 24.4 g and 23.9 g and 24 g and 22.7 g and 21.9 g and 23.7 g and 23.8 g and 21.4 g
[13]
  BWL %: 8.0%
  Mouse body weight, Mean: 23.9 g
[14]
  BWL %: 6.3%
  Mouse body weight, Mean: 25.2 g
  Mouse body weight: 28.7 g
[15]
  BWL %: 9.7%
  Mouse body weight, Mean: 25.9 g
  Mouse body weight: 30.7 g
[16]
  BWL %: 13.9%
  Mouse body weight, Mean: 26.4 g
  Mouse body weight: 30.6 g
[17]
  BWL %: 8.8%
  Mouse body weight, Mean: 24.6 g
  Mouse body weight: 28.7 g
[18]
  BWL %: 7.6%
  Mouse body weight, Mean: 24.1 g
  Mouse body weight: 24.1 g
EDO80 (80 mg/kg), day 83 from inoculum, mouse # 56
  Animal status: †
[19]
  BWL %: 5.0%
  Mouse body weight, Mean: 23.8 g
  Mouse body weight: 25.3 g
[20]
  BWL %: 2.9%
  Mouse body weight, Mean: 25.4 g
  Mouse body weight: 29.2 g
[21]
  BWL %: 0.0%
  Mouse body weight, Mean: 27.4 g
[22]
  BWL %: 2.9%
  Mouse body weight, Mean: 28.0 g
  Mouse body weight: 31.1 g
[23]
  BWL %: 0.4%
  Mouse body weight, Mean: 27.5 g
  Mouse body weight: 29.7 g
[24]
  BWL %: −0.8%
  Mouse body weight, Mean: 27.3 g
  Mouse body weight: 25.9 g
All doses and schedules
  BWL: < 5%
